{"source": "the supplement of paper PMC10307832", "test_in_all_cases": "relative viability (nuclei count vs DMSO), 5 days (fraction); higher = more cells survive", "key": {"[1]": {"system": "A-427", "in_short": "(§1)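 Relative viability was taken as the ratio of nuclei in treated wells to nuclei in vehicle wells. Lung cancer cell lines in 1536-well plates received compounds by pin tool one day after seeding, either one drug alone or a fixed anchor-drug dose plus five library-drug doses (not always all listed) in √10 steps. Nuclei were counted on 4× images after 5 days of treatment, and values are medians of duplicate plates.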"}, "[2]": {"system": "ABC-1", "in_short": "as §1"}, "[3]": {"system": "COR-L23", "in_short": "as §1"}, "[4]": {"system": "EMC-BAC-2", "in_short": "as §1"}, "[5]": {"system": "HARA", "in_short": "as §1"}, "[6]": {"system": "HCC-15", "in_short": "as §1"}, "[7]": {"system": "HCC-366", "in_short": "as §1"}, "[8]": {"system": "HCC-78", "in_short": "as §1"}, "[9]": {"system": "LC-2-ad", "in_short": "as §1"}, "[10]": {"system": "NCI-H1734", "in_short": "as §1"}, "[11]": {"system": "NCI-H1793", "in_short": "as §1"}, "[12]": {"system": "NCI-H1944", "in_short": "as §1"}, "[13]": {"system": "NCI-H1993", "in_short": "as §1"}, "[14]": {"system": "NCI-H2009", "in_short": "as §1"}, "[15]": {"system": "NCI-H2023", "in_short": "as §1"}, "[16]": {"system": "NCI-H2126", "in_short": "as §1"}, "[17]": {"system": "NCI-H2228", "in_short": "as §1"}, "[18]": {"system": "NCI-H23", "in_short": "as §1"}, "[19]": {"system": "NCI-H2405", "in_short": "as §1"}, "[20]": {"system": "NCI-H838", "in_short": "as §1"}, "[21]": {"system": "SK-LU-1", "in_short": "as §1"}, "[22]": {"system": "UMC-11", "in_short": "as §1"}}}
{"smiles": "NC(=O)Nc1cc(-c2cccc(F)c2)sc1C(=O)N[C@H]1CCCNC1", "note": "[AZD7762] + C[C@]1(O)C[C@@H](c2nc(-c3ccc4ccc(-c5ccccc5)nc4c3)c3c(N)nccn32)C1 [Linsitinib] (partner 1 µM)", "values": [{"measurement": "relative viability", "setting": "[1]; first compound 0.01 µM", "value": 1.13}, {"measurement": "relative viability", "setting": "[1]; first compound 0.03162 µM", "value": 1.18}, {"measurement": "relative viability", "setting": "[1]; first compound 0.1 µM", "value": 1.22}, {"measurement": "relative viability", "setting": "[1]; first compound 0.3162 µM", "value": 1.13}, {"measurement": "relative viability", "setting": "[1]; first compound 1 µM", "value": 0.976}, {"measurement": "relative viability", "setting": "[2]; first compound 0.01 µM", "value": 1.08}, {"measurement": "relative viability", "setting": "[2]; first compound 0.03162 µM", "value": 0.839}, {"measurement": "relative viability", "setting": "[2]; first compound 0.1 µM", "value": 0.925}, {"measurement": "relative viability", "setting": "[2]; first compound 0.3162 µM", "value": 0.409}, {"measurement": "relative viability", "setting": "[2]; first compound 1 µM", "value": 0.278}, {"measurement": "relative viability", "setting": "[3]; first compound 0.01 µM", "value": 1.11}, {"measurement": "relative viability", "setting": "[3]; first compound 0.03162 µM", "value": 0.916}, {"measurement": "relative viability", "setting": "[3]; first compound 0.1 µM", "value": 0.98}, {"measurement": "relative viability", "setting": "[3]; first compound 0.3162 µM", "value": 0.799}, {"measurement": "relative viability", "setting": "[3]; first compound 1 µM", "value": 0.18}, {"measurement": "relative viability", "setting": "[4]; first compound 0.01 µM", "value": 0.795}, {"measurement": "relative viability", "setting": "[4]; first compound 0.03162 µM", "value": 0.806}, {"measurement": "relative viability", "setting": "[4]; first compound 0.1 µM", "value": 0.799}, {"measurement": "relative viability", "setting": "[4]; first compound 0.3162 µM", "value": 0.799}, {"measurement": "relative viability", "setting": "[4]; first compound 1 µM", "value": 0.809}, {"measurement": "relative viability", "setting": "[5]; first compound 0.01 µM", "value": 0.961}, {"measurement": "relative viability", "setting": "[5]; first compound 0.03162 µM", "value": 0.934}, {"measurement": "relative viability", "setting": "[5]; first compound 0.1 µM", "value": 0.847}, {"measurement": "relative viability", "setting": "[5]; first compound 0.3162 µM", "value": 0.854}, {"measurement": "relative viability", "setting": "[5]; first compound 1 µM", "value": 0.617}, {"measurement": "relative viability", "setting": "[6]; first compound 0.01 µM", "value": 0.886}, {"measurement": "relative viability", "setting": "[6]; first compound 0.03162 µM", "value": 0.918}, {"measurement": "relative viability", "setting": "[6]; first compound 0.1 µM", "value": 0.915}, {"measurement": "relative viability", "setting": "[6]; first compound 0.3162 µM", "value": 0.93}, {"measurement": "relative viability", "setting": "[6]; first compound 1 µM", "value": 0.985}, {"measurement": "relative viability", "setting": "[7]; first compound 0.01 µM", "value": 0.587}, {"measurement": "relative viability", "setting": "[7]; first compound 0.03162 µM", "value": 0.666}, {"measurement": "relative viability", "setting": "[7]; first compound 0.1 µM", "value": 0.607}, {"measurement": "relative viability", "setting": "[7]; first compound 0.3162 µM", "value": 0.255}, {"measurement": "relative viability", "setting": "[7]; first compound 1 µM", "value": 0.0442}, {"measurement": "relative viability", "setting": "[8]; first compound 0.01 µM", "value": 0.624}, {"measurement": "relative viability", "setting": "[8]; first compound 0.03162 µM", "value": 0.553}, {"measurement": "relative viability", "setting": "[8]; first compound 0.1 µM", "value": 0.581}, {"measurement": "relative viability", "setting": "[8]; first compound 0.3162 µM", "value": 0.519}, {"measurement": "relative viability", "setting": "[8]; first compound 1 µM", "value": 0.345}, {"measurement": "relative viability", "setting": "[9]; first compound 0.01 µM", "value": 0.854}, {"measurement": "relative viability", "setting": "[9]; first compound 0.03162 µM", "value": 0.929}, {"measurement": "relative viability", "setting": "[9]; first compound 0.1 µM", "value": 0.787}, {"measurement": "relative viability", "setting": "[9]; first compound 0.3162 µM", "value": 0.674}, {"measurement": "relative viability", "setting": "[9]; first compound 1 µM", "value": 0.437}, {"measurement": "relative viability", "setting": "[10]; first compound 0.01 µM", "value": 0.885}, {"measurement": "relative viability", "setting": "[10]; first compound 0.03162 µM", "value": 0.887}, {"measurement": "relative viability", "setting": "[10]; first compound 0.1 µM", "value": 1.05}, {"measurement": "relative viability", "setting": "[10]; first compound 0.3162 µM", "value": 0.869}, {"measurement": "relative viability", "setting": "[10]; first compound 1 µM", "value": 0.734}, {"measurement": "relative viability", "setting": "[11]; first compound 0.01 µM", "value": 1.05}, {"measurement": "relative viability", "setting": "[11]; first compound 0.03162 µM", "value": 0.82}, {"measurement": "relative viability", "setting": "[11]; first compound 0.1 µM", "value": 0.994}, {"measurement": "relative viability", "setting": "[11]; first compound 0.3162 µM", "value": 0.801}, {"measurement": "relative viability", "setting": "[11]; first compound 1 µM", "value": 0.358}, {"measurement": "relative viability", "setting": "[12]; first compound 0.01 µM", "value": 1.19}, {"measurement": "relative viability", "setting": "[12]; first compound 0.03162 µM", "value": 1.26}, {"measurement": "relative viability", "setting": "[12]; first compound 0.1 µM", "value": 1.35}, {"measurement": "relative viability", "setting": "[12]; first compound 0.3162 µM", "value": 1.25}, {"measurement": "relative viability", "setting": "[12]; first compound 1 µM", "value": 1.14}, {"measurement": "relative viability", "setting": "[13]; first compound 0.01 µM", "value": 0.743}, {"measurement": "relative viability", "setting": "[13]; first compound 0.03162 µM", "value": 0.678}, {"measurement": "relative viability", "setting": "[13]; first compound 0.1 µM", "value": 0.666}, {"measurement": "relative viability", "setting": "[13]; first compound 0.3162 µM", "value": 0.73}, {"measurement": "relative viability", "setting": "[13]; first compound 1 µM", "value": 0.717}, {"measurement": "relative viability", "setting": "[14]; first compound 0.01 µM", "value": 1.32}, {"measurement": "relative viability", "setting": "[14]; first compound 0.03162 µM", "value": 1.18}, {"measurement": "relative viability", "setting": "[14]; first compound 0.1 µM", "value": 1.27}, {"measurement": "relative viability", "setting": "[14]; first compound 0.3162 µM", "value": 1.22}, {"measurement": "relative viability", "setting": "[14]; first compound 1 µM", "value": 0.752}, {"measurement": "relative viability", "setting": "[15]; first compound 0.01 µM", "value": 0.619}, {"measurement": "relative viability", "setting": "[15]; first compound 0.03162 µM", "value": 0.485}, {"measurement": "relative viability", "setting": "[15]; first compound 0.1 µM", "value": 0.387}, {"measurement": "relative viability", "setting": "[15]; first compound 0.3162 µM", "value": 0.21}, {"measurement": "relative viability", "setting": "[15]; first compound 1 µM", "value": 0.0864}, {"measurement": "relative viability", "setting": "[16]; first compound 0.01 µM", "value": 0.711}, {"measurement": "relative viability", "setting": "[16]; first compound 0.03162 µM", "value": 0.758}, {"measurement": "relative viability", "setting": "[16]; first compound 0.1 µM", "value": 0.763}, {"measurement": "relative viability", "setting": "[16]; first compound 0.3162 µM", "value": 0.706}, {"measurement": "relative viability", "setting": "[16]; first compound 1 µM", "value": 0.805}, {"measurement": "relative viability", "setting": "[17]; first compound 0.01 µM", "value": 0.792}, {"measurement": "relative viability", "setting": "[17]; first compound 0.03162 µM", "value": 0.478}, {"measurement": "relative viability", "setting": "[17]; first compound 0.1 µM", "value": 0.734}, {"measurement": "relative viability", "setting": "[17]; first compound 0.3162 µM", "value": 0.289}, {"measurement": "relative viability", "setting": "[17]; first compound 1 µM", "value": 0.242}, {"measurement": "relative viability", "setting": "[18]; first compound 0.01 µM", "value": 0.659}, {"measurement": "relative viability", "setting": "[18]; first compound 0.03162 µM", "value": 0.631}, {"measurement": "relative viability", "setting": "[18]; first compound 0.1 µM", "value": 0.517}, {"measurement": "relative viability", "setting": "[18]; first compound 0.3162 µM", "value": 0.517}, {"measurement": "relative viability", "setting": "[18]; first compound 1 µM", "value": 0.252}, {"measurement": "relative viability", "setting": "[19]; first compound 0.01 µM", "value": 1}, {"measurement": "relative viability", "setting": "[19]; first compound 0.03162 µM", "value": 0.929}, {"measurement": "relative viability", "setting": "[19]; first compound 0.1 µM", "value": 0.86}, {"measurement": "relative viability", "setting": "[19]; first compound 0.3162 µM", "value": 0.655}, {"measurement": "relative viability", "setting": "[19]; first compound 1 µM", "value": 0.402}, {"measurement": "relative viability", "setting": "[20]; first compound 0.01 µM", "value": 0.982}, {"measurement": "relative viability", "setting": "[20]; first compound 0.03162 µM", "value": 1.01}, {"measurement": "relative viability", "setting": "[20]; first compound 0.1 µM", "value": 0.942}, {"measurement": "relative viability", "setting": "[20]; first compound 0.3162 µM", "value": 0.978}, {"measurement": "relative viability", "setting": "[20]; first compound 1 µM", "value": 0.627}, {"measurement": "relative viability", "setting": "[21]; first compound 0.01 µM", "value": 1.1}, {"measurement": "relative viability", "setting": "[21]; first compound 0.03162 µM", "value": 0.804}, {"measurement": "relative viability", "setting": "[21]; first compound 0.1 µM", "value": 0.358}, {"measurement": "relative viability", "setting": "[21]; first compound 0.3162 µM", "value": 0.218}, {"measurement": "relative viability", "setting": "[21]; first compound 1 µM", "value": 0.251}, {"measurement": "relative viability", "setting": "[22]; first compound 0.01 µM", "value": 1.03}, {"measurement": "relative viability", "setting": "[22]; first compound 0.03162 µM", "value": 0.956}, {"measurement": "relative viability", "setting": "[22]; first compound 0.1 µM", "value": 0.976}, {"measurement": "relative viability", "setting": "[22]; first compound 0.3162 µM", "value": 0.689}, {"measurement": "relative viability", "setting": "[22]; first compound 1 µM", "value": 0.551}]}
